Test results from patent US20250214978A1, “AT2R AGONIST” (WUHAN HUMANWELL INNOVATIVE DRUG RESEARCH AND DEVELOPMENT …, priority 2022, published 2025).
pIC50: −log10 of the molar value. Like-named read-outs stand apart in the source and are kept apart here.

Tests used:
[1] = Liver microsome stability assay; format: in vitro ADME; conditions: dog; Canine liver microsomes; read-out: T1/2 (min) Canine
[2] = Liver microsome stability assay; format: in vitro ADME; conditions: Human liver microsomes, NADPH, 37° C.; read-out: T1/2 (min) Human
Description: The human liver microsome stability assay was performed by co-incubating the compound with human liver microsomes in vitro. The test compounds were first prepared as 10 mM stock solutions in DMSO solvent, and then diluted to 0.5 mM with acetonitrile. Human liver microsomes (Corning) were diluted with PBS to prepare a microsome/buffer solution, and this solution was used to dilute 0.5 mM of the compound to prepare a working solution. In the working solution, a concentration of the compound was 1.5 μM and a concentration of the human liver microsome was 0.75 mg/ml. A deep-well plate was taken, 30 μL of working solution was added to each well of the plate, and then 15 μL of pre-heated NADPH solution (6 mM) was added to start the reaction. The mixture was incubated at 37° C. 135 μL of acetonitrile was added to the corresponding wells to stop the reaction at 0 minute, 5 minutes, 15 minutes, 30 minute, and 45 minutes of incubation. Subsequent to the stop of the reaction by means of acetonitrile at the last time point of 45 minute, the plate was vortexed for 10 minutes (600 rpm/min) and then centrifuged for 15 minutes. […] The peak area ratios of the compound at 5 minutes, 15 minutes, 30 minutes, and 45 minutes were compared with the peak area ratio at 0 minute, and the remaining percentage of the compound at each time point was calculated. T1/2 was calculated using Graphpad8 software.

[3] = Liver microsome stability assay; format: in vitro ADME; conditions: Mouse liver microsomes; read-out: T1/2 (min) Mouse
CYP2D6 = CYP2D6 (Homo sapiens (Human), UniProt P10635); assay: CYP inhibition assay in mixed human liver microsomes; format: in vitro ADME; conditions: mixed (pooled) human liver microsomes, read-out: Inhibition rate % CYP2D6
Description: (§1) The inhibitory effects of the compounds on seven enzymes, i.e., CYP1A2, CYP2C9, CYP2C19, CYP2D6, CYP3A4 (midazolam), CYP2B6, and CYP2C8, were evaluated at a concentration of 10 μM. Mixed human liver microsomes, which were previously stored in a −80° C. refrigerator before use, were taken out and thawed in a water bath at 37° C. before use, and placed on ice for further operation. 100 μL of microsome working solution was taken, and added with 2 μL of test product or positive inhibitor working solution. 2 μL of solvent was added to the solvent control. The mixture was pre-incubated in a water bath at 37° C. for 10 minutes. After preincubation, 98 μL of NADPH regeneration solution was added to all samples to initiate the reaction. Then, the samples were put back into the water bath and incubated for a period of time. The reaction was quenched with 200 μL of stop solution. The plate was centrifuged at 3,220 g for 10 minutes, 100 μL of supernatant was transferred, and 100 μL of water was added and mixed well to the assay plate for LC/MS/MS analysis.

CYP2B6 = CYP2B6 (Homo sapiens (Human), UniProt P20813); assay: as above; format: in vitro ADME; conditions: mixed (pooled) human liver microsomes, read-out: Inhibition rate % CYP2B6
Description: as §1

CYP1A2 = CYP1A2 (Homo sapiens (Human), UniProt P05177); assay: as above; format: in vitro ADME
Description: as §1

CYP2C9 = CYP2C9 (Homo sapiens (Human), UniProt P11712); assay: as above; format: in vitro ADME; conditions: mixed (pooled) human liver microsomes, read-out: Inhibition rate % CYP2C9
Description: as §1

CYP2C8 = CYP2C8 (Homo sapiens (Human), UniProt P10632); assay: as above; format: in vitro ADME; conditions: mixed (pooled) human liver microsomes, read-out: Inhibition rate % CYP2C8
Description: as §1

CYP2C19 = CYP2C19 (Homo sapiens (Human), UniProt P33261); assay: as above; format: in vitro ADME; conditions: mixed (pooled) human liver microsomes, read-out: Inhibition rate % CYP2C19
Description: as §1

CYP3A4 = CYP3A4 (Homo sapiens (Human), UniProt P08684); assay: as above; format: in vitro ADME; conditions: mixed (pooled) human liver microsomes, probe midazolam, read-out: Inhibition rate % CYP3A4 (midazolam)
Description: as §1

AT2R = AT2R (Homo sapiens (Human), UniProt P50052); assay: Binding assay of compounds to AT2R (Tag-lite HTRF ligand binding kit); conditions: 1 hour incubation at room temperature
Summary of the method: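 Tag-lite HTRF competition binding on labeled cells: compounds in 10-point 5-fold dilution series (duplicates) incubated with cells and red fluorescent labeled ligand 1 h at room temperature in 1×TLB. 665/615 nm ratio read; IC50 fitted from ratio versus log compound concentration.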

Chain of CYP2B6 (P20813 whole entry): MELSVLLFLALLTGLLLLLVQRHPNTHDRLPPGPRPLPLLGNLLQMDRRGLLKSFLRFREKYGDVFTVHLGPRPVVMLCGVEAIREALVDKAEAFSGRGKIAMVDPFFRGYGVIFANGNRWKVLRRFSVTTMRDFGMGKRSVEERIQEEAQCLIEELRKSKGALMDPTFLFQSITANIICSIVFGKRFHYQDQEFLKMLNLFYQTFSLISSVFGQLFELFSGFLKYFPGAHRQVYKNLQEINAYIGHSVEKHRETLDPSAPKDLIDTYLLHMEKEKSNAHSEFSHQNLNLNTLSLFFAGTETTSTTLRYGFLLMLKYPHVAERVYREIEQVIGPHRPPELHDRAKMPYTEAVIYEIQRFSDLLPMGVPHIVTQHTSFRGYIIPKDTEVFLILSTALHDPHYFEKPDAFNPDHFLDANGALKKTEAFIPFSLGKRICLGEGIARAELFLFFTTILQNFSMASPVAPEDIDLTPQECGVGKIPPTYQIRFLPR
Chain of CYP2C19 (P33261 whole entry): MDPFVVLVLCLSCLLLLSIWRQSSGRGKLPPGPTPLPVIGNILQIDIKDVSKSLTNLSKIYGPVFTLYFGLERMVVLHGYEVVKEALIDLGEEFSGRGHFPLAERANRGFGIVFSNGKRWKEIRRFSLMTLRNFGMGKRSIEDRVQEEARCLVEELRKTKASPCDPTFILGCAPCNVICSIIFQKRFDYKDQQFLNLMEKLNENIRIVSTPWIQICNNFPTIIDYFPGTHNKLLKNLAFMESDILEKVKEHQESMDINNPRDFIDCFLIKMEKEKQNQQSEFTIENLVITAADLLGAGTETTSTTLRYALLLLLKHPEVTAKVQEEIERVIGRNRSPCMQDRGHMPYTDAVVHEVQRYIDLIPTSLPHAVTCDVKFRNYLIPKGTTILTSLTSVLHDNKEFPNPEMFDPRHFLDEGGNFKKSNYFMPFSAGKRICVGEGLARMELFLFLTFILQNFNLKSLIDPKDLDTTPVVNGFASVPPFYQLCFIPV
Chain of CYP2D6 (P10635 whole entry): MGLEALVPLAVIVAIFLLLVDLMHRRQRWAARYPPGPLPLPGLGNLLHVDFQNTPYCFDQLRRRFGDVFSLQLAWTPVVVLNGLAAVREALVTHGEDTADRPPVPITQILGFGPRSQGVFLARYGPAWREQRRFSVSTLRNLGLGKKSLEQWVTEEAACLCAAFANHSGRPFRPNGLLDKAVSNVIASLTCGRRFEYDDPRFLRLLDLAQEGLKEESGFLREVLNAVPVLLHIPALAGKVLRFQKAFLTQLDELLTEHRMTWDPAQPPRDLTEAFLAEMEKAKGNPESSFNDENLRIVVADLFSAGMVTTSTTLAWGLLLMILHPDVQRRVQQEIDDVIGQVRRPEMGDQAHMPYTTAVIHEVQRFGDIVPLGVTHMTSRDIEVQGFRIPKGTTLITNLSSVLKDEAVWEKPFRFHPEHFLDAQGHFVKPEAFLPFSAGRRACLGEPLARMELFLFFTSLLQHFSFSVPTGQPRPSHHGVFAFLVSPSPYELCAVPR
Chain of CYP3A4 (P08684 whole entry): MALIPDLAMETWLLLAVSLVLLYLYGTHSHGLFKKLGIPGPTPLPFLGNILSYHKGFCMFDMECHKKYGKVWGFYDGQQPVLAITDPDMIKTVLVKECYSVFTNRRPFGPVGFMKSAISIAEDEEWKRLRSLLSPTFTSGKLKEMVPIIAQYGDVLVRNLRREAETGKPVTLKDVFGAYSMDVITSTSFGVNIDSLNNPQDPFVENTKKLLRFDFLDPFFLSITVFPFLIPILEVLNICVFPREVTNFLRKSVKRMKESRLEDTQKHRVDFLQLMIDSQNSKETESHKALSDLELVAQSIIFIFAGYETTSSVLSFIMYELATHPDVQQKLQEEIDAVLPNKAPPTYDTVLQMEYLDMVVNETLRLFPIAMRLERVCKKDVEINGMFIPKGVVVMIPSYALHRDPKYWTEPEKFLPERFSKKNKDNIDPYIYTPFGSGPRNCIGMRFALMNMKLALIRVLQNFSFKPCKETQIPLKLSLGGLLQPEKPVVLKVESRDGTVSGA
Chain of AT2R (P50052 whole entry): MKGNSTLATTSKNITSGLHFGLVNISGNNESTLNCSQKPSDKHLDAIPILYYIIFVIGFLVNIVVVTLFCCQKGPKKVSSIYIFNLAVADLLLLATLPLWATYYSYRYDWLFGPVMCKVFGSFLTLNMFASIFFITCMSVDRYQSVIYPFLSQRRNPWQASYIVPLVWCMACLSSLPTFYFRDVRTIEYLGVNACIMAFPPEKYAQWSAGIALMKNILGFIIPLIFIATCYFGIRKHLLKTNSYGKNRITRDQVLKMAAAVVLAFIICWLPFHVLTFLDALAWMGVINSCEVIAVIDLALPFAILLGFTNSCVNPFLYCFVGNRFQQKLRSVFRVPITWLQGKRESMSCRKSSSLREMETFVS
Chain of CYP1A2 (P05177 whole entry): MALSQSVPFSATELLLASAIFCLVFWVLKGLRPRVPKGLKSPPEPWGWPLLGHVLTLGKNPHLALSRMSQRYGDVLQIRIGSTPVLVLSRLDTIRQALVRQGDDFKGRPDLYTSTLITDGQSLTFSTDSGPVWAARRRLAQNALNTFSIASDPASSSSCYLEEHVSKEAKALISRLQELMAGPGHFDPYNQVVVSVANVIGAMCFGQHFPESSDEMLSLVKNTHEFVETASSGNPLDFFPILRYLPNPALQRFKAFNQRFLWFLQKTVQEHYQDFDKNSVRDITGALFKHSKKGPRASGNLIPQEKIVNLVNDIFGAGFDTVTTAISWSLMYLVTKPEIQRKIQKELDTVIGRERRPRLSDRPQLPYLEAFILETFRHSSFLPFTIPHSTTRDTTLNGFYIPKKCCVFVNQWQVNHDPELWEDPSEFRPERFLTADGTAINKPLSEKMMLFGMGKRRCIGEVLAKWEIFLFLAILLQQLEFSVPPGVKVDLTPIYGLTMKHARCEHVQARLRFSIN
Chain of CYP2C9 (P11712 whole entry): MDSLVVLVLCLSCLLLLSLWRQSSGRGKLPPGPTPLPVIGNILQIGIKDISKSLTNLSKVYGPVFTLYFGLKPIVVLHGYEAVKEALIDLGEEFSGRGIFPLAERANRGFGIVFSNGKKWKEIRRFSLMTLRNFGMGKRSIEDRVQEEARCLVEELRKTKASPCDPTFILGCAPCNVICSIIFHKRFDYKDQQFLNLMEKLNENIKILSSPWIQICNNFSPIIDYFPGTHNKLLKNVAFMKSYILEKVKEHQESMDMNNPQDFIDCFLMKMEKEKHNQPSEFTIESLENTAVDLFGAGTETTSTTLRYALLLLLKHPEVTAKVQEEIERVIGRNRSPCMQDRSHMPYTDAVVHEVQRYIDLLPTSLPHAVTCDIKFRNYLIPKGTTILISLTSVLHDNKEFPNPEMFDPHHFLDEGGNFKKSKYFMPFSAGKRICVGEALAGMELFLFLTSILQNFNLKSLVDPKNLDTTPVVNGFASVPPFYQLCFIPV
Chain of CYP2C8 (P10632 whole entry): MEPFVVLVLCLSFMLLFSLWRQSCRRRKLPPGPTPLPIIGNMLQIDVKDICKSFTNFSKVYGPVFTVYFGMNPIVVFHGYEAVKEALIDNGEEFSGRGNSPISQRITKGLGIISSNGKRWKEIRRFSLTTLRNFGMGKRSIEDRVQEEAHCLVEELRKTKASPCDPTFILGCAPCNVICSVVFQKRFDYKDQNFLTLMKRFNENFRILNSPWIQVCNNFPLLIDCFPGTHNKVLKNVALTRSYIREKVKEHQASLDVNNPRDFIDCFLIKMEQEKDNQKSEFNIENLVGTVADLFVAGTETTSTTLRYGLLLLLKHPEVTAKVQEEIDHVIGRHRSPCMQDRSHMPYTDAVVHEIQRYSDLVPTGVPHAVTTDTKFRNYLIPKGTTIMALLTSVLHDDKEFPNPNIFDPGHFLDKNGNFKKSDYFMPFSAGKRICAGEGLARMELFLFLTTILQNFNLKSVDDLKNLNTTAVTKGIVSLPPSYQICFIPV

- half-life at 1 μM [1]: 122 min
- half-life at 1 μM [2]: 45 min
- half-life at 1 μM [3]: 61.9 min
- inhibition at 10 µM (CYP2D6): 12.6%
- inhibition at 10 µM (CYP2B6): 13.7%
- inhibition at 10 µM (CYP1A2): 2.82%
- inhibition at 10 µM (CYP2C9): 77.3%
- inhibition at 10 µM (CYP2C8): 71.8%
- inhibition at 10 µM (CYP2C19): 36.5%
- inhibition at 10 µM (CYP3A4): 3.8%
- pIC50 (AT2R): 8.36
Compound: COC(=O)NS(=O)(=O)c1sc(CC(C)C)c(C)c1-c1ccc(Cn2ccnc2Cl)cc1 [Compound I-34, Methyl ((3-(4-((2-chloro-1H-imidazol-1-yl)methyl)phenyl)-5-isobutyl-4-methylthiophen-2-yl)sulfonyl)carbamate]
